From patent US20260124309A1, “STAT6 DEGRADERS AND USES THEREOF” (Kymera Therapeutics, Inc., priority 2023, published 2026) come the findings set out here.

Experiment [1] has as its target T1, biotinylated truncated STAT6 (123-632)-avi (Homo sapiens, UniProt P42226).
T1 construct: biotinylated truncated STAT6 (123-632)-avi purified from E. coli; made in house; host or cells: E. coli
T1 sequence (P42226 123-632 limits assumed): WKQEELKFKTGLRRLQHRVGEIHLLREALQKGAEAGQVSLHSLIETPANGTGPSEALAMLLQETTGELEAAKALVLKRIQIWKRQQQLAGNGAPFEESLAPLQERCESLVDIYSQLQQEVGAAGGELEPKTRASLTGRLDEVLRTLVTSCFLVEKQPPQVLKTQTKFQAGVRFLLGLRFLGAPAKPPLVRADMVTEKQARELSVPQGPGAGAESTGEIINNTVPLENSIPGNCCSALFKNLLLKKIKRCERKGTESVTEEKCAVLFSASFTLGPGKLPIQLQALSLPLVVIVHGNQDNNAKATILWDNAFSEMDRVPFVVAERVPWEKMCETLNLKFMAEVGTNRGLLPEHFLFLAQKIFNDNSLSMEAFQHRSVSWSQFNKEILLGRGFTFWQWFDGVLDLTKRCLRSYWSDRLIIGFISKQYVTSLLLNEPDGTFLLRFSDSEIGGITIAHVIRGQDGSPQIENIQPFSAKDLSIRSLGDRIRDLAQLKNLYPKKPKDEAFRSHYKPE
The experiment in a line: STAT6 HTRF binding assay. To be noted: HTRF binding, 0.15 nM biotinylated truncated STAT6 (123-632)-avi, 20 nM fluorescein-labeled probe. The protocol: HTRF binding assays were performed using 0.15 nM biotinylated truncated STAT6 (123-632)-avi purified from E. coli, 1× Streptavidin-terbium (CisBio) prepared by mixing SA-Tb in PPI detection buffer (CisBio), 20 nM proprietary fluorescein-labeled probe, and test compounds in assay buffer consisting of 50 mM HEPES-Na pH 7.5, 100 mM NaCl, 1 mM EDTA, 2 mM DTT, 0.1% Tween-20 with a final volume of 20 uL. Compound stocks were dissolved at 10 mM in 100% DMSO and 11 point titration with 3 fold serial dilution was performed in white, opaque 384 well microplates. Reaction plates were incubated at room temperature for 30 minutes. Plates were centrifuged at low rpm for 5 mins, and the ratio of fluorescence intensities were measured at emission wavelengths for fluorescein acceptor (520 nm) and terbium donor (495 nm) on Envision Plate reader. % Inhibition was calculated from the 520/495 ratio generated by using proprietary positive control compound for 100% inhibition and DMSO only reactions for 0% inhibition. Data was processed and dose response curves were generated using GraphPad Prism to determine the concentration required for inhibiting 50% of the HTRF signal (IC50).
The letter codes for IC50 (μM) include: A (<0.1 μM); B (0.1-1 μM); C (>1-10 μM); D (>10-100 μM); E (>100 μM); and F (not tested).
In general terms: TR-FRET usually uses a lanthanide donor and a delayed reading to cut background.

Experiment [2] concerns the target T2, STAT6 (Homo sapiens, UniProt P42226).
T2 construct: endogenous in cells; host or cells: A549
T2 sequence (P42226 1-847): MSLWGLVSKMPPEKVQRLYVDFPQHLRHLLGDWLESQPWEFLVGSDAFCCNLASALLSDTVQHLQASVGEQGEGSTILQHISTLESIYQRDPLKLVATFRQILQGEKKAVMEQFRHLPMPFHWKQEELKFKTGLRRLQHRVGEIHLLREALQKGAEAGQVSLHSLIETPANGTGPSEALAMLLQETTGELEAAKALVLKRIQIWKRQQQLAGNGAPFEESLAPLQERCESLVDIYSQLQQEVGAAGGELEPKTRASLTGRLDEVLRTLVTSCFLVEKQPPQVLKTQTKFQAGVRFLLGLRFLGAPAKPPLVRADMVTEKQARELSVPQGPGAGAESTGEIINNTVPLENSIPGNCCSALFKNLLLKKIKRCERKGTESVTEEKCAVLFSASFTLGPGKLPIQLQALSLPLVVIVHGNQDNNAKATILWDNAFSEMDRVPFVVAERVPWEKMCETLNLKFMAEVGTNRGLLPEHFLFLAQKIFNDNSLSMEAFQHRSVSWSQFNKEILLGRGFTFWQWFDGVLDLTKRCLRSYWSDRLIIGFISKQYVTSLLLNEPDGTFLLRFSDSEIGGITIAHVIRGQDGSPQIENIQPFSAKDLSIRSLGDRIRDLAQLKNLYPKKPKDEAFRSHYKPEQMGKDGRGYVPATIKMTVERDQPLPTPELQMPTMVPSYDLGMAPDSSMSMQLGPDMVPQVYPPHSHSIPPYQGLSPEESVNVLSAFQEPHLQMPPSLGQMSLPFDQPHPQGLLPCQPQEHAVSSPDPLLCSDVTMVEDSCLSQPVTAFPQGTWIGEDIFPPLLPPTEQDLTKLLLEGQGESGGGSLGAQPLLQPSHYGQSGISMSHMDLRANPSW
Description: STAT6 MSD degradation in A549 cells. The format is cell-based. The settings on record: 24 h. The protocol:
Degradation of STAT6 in cells was quantitatively measured using Meso Scale Discovery (MSD) technology. A549 cells were seeded in 96-well plates with a density of 1.5×10e4 to 5×10e5 cells per well in 100 μl fresh media. Compounds were then added to the assay plates with a final top concentration of up to 10 uM in a 1:3 dilution series with total of 9 doses. The assay plates were then incubated for 4 to 24 hours at 37° C. under 5% CO2. The assay plates were then centrifuged for 5 minutes and the cell pellets were treated with 100 μl/well RIPA lysis buffer (Boston Bioproducts, BP-115D) with protease and phosphatase inhibitors (Roche, 05892791001 and 04906837001). To prepare the MSD assay plates (MSD, L15XA), the plates were coated with the capture antibody (Abnova, H00006778) in PBS, at 40 μl/well. The plates were then incubated overnight at 4° C., washed 1 time with 150 μl/well TBST buffer (Cell Signaling Technology, #9997S) and blocked with 150 μl/well blocking buffer (MSD, R93BA-4). Cell lysates were then added to MSD assay plates and the plates were incubated at room temperature for 1 hour. The plates were then washed 3 times with 150 μl/well TBST buffer and 25 μl/well primary detection antibody (Cell Signaling Technology, #5397S). The assay plates were then incubated at room temperature for 1 hour, washed 3 times with 150 μl/well TBST buffer, and 25 μl/well secondary detection antibody, SULFO-TAG anti-rabbit antibody (MSD, R32AB-1) were added. The assay plates were then incubated at room temperature for 1 hour, washed 3 times with 150 μl/well TBST buffer, and 150 μl/well MSD reading buffer (MSD, R92TC-2) were added. The plates were then analyzed by an MSD reader. The data was analyzed by GraphPad Prism and the dose dependent STAT6 degradation was fit using the four-parameter inhibitor vs. response nonlinear regression.
The letter codes for DC50 (nM) include: A (<1 nM); B (1-10 nM); C (>10-100 nM); D (>100-1000 nM); E (>1000 nM); and F (not tested). The letter codes for Dmax (oo) include: A (>90%); B (>70-90%); C (>50-70%); D ([…]); and F (not tested).

With `COc1cc(N2CCN(c3ccc(-c4cc(C5=CCCN(C(=O)CCn6cccn6)C5)c(F)c5[nH]c(C(=O)N(C)C)cc45)c(F)c3F)CC2)c(F)cc1N[C@@H]1CCC(=O)NC1=O` (single isomer, unassigned) [Example I-744], the IC50 in experiment [1] is less than 100 nM. In addition, in experiment [2], the half-maximal degradation concentration (DC50) is less than 1 nM and the Dmax was more than 90%.
As to `CN(C)C(=O)c1cc2c(F)c(C3=CCCN(C(=O)CCn4cccn4)C3)cc(-c3ccc(C4CN(C(=O)c5ccc(Cl)c(C6CCC(=O)NC6=O)c5)C4)cc3)c2o1` (stereo not drawn) [Example I-495, 5-(1-(3-(1H-pyrazol-1-yl)propanoyl)-1,2,5,6-tetrahydropyridin-3-yl)-7-(4-(1-(4-chloro-3-(2,6-dioxopiperidin-3-yl)benzoyl)azetidin-3-yl)phenyl)-4-fluoro-N,N-dimethylbenzofuran-2-carboxamide], in experiment [1], the half-maximal inhibitory concentration (IC50) is less than 100 nM. In experiment [2], this molecule returned a 50% degradation concentration (DC50) of 10 to 100 nM and a Dmax of 50 to 70%.
Regarding `COc1cc(N2CCC(c3ccc(-c4cc(C5=CCCN(C(=O)CCn6cccn6)C5)c(F)c5[nH]c(C(=O)N(C)C)cc45)c(OC(F)(F)F)c3)CC2)c(F)cc1N[C@@H]1CCC(=O)NC1=O` (single isomer, unassigned) [Example I-792], the concentration for half-maximal inhibition (IC50) in experiment [1] was less than 100 nM. Further, in experiment [2], the DC50 was 1 to 10 nM and the Dmax was 70 to 90%.
Molecule `COc1cc(N2CCN(c3ccc(-c4cc(C5=CCCN(C(=O)CCn6cccn6)C5)c(F)c5[nH]c(C(=O)N(C)C)cc45)c(F)c3F)CC2)c(F)cc1N[C@H]1CCC(=O)NC1=O` (single isomer, unassigned) [Example I-745] registered an IC50 in experiment [1] of less than 100 nM. Moreover, in experiment [2], the half-maximal degradation concentration (DC50) is less than 1 nM and the Dmax is more than 90%.
In turn, `COc1cc(N2CCC(c3ccc(-c4cc(C5=CCCN(C(=O)CCn6cccn6)C5)c(F)c5[nH]c(C(=O)N(C)C)cc45)c(OC(F)(F)F)c3)CC2)c(F)cc1N[C@H]1CCC(=O)NC1=O` (single isomer, unassigned) [Example I-793] yielded a concentration for half-maximal inhibition (IC50) in experiment [1] of less than 100 nM. In experiment [2], this molecule showed a DC50 of 1 to 10 nM and a maximal degradation (Dmax) of 70 to 90%.
Regarding `COc1cc(N2CCN(CCOCC3CCN(c4ccnc(N5CC[C@@H]6[C@H]5CCCN6c5cccc(F)c5)c4)CC3)CC2)ccc1-c1cc(C2=CCCN(C(=O)CCn3ccnn3)C2)c(F)c2[nH]c(C(=O)N(C)C)cc12` [Example I-1049, 4-[4-(4-{2-[(1-{2-[(3aR,7aR)-4-(3-fluorophenyl)-hexahydro-2H-pyrrolo[3,2-b]pyridin-1-yl]pyridin-4-yl}piperidin-4-yl)methoxy]ethyl}piperazin-1-yl)-2-methoxyphenyl]-7-fluoro-N,N-dimethyl-6-{1-[3-(1,2,3-triazol-1-yl)propanoyl]-5,6-dihydro-2H-pyridin-3-yl}-1H-indole-2-carboxamide], in experiment [1], the IC50 was less than 100 nM.
`Cc1cc(C2CCN(c3cccc4c3n(C)c(=O)n4[C@H]3CCC(=O)NC3=O)CC2)ccc1-c1cc(C2=CCCN(C(=O)C(C)C)C2)c(F)c2[nH]c(C(=O)N(C)C)cc12` (single isomer, unassigned) [Example I-791]: in experiment [1], the IC50 is 1000 to 10000 nM. In experiment [2], this molecule came in with a half-maximal degradation concentration (DC50) of less than 1 nM and a Dmax of more than 90%.
In the same order, the values of `Cc1cc(C2CCN(c3cccc4c3n(C)c(=O)n4C3CCC(=O)NC3=O)CC2)ccc1-c1cc(C2=CCCN(C(=O)C(C)C)C2)c(F)c2[nH]c(C(=O)N(C)C)cc12` (stereo not drawn) [Example I-566] are 1000 to 10000 nM, less than 1 nM and more than 90%.
In experiment [1], `CN(C)C(=O)c1cc2c(-c3ccc(C4CCN(c5ccc([C@H]6CCC(=O)NC6=O)cc5F)CC4)cc3)cc(C3=CCCN(C(=O)CCn4cccn4)C3)c(F)c2[nH]1` (single isomer, unassigned) [Example I-743] registered a 50% inhibitory concentration (IC50) of less than 100 nM. In experiment [2], this molecule displayed a DC50 of less than 1 nM and a maximal degradation (Dmax) of more than 90%.
`CC(=O)N1CCC=C(c2cc(-c3ccc(C4CCN(c5cccc6c5n(C)c(=O)n6C5CCC(=O)NC5=O)CC4)cc3C)c3cc(C(=O)N(C)C)[nH]c3c2F)C1` (stereo not drawn) [Example I-455, 6-(1-Acetyl-1,2,5,6-tetrahydropyridin-3-yl)-4-(4-(1-(1-(2,6-dioxopiperidin-3-yl)-3-methyl-2-oxo-2,3-dihydro-1H-benzo[d]1734midazole-4-yl)piperidin-4-yl)-2-methylphenyl)-7-fluoro-N,N-dim ethyl-1H-indole-2-carboxamide] returned an IC50 in experiment [1] of 1000 to 10000 nM. In experiment [2], this molecule registered a DC50 of less than 1 nM and a Dmax of more than 90%.
On to `COc1cc(N2CCN(c3ccc(-c4cc(C5=CCCN(C(=O)CCn6cccn6)C5)c(F)c5[nH]c(C(=O)N(C)C)cc45)cc3)CC2)c(F)cc1N[C@H]1CCC(=O)NC1=O` (single isomer, unassigned) [Example I-795], for which the IC50 in experiment [1] is less than 100 nM. Besides, in experiment [2], the DC50 is less than 1 nM and the Dmax is more than 90%.
In the case of `CN(C)C(=O)c1cc2c(-c3ccc(C4CCN(c5ccc([C@@H]6CCC(=O)NC6=O)cc5F)CC4)cc3)cc(C3=CCCN(C(=O)CCn4cccn4)C3)c(F)c2[nH]1` (single isomer, unassigned) [Example I-742], in experiment [1], the half-maximal inhibitory concentration (IC50) is less than 100 nM. In experiment [2], this molecule had a 50% degradation concentration (DC50) of less than 1 nM and a Dmax of more than 90%.
In the case of `COc1cc(N2CCN(c3ccc(-c4cc(C5=CCCN(C(=O)CCn6cccn6)C5)c(F)c5[nH]c(C(=O)N(C)C)cc45)cc3)CC2)c(F)cc1N[C@@H]1CCC(=O)NC1=O` (single isomer, unassigned) [Example I-794], in experiment [2], the DC50 was less than 1 nM and the Dmax is 70 to 90%.

As a reminder, the IC50 is the concentration at which inhibition is half-maximal. In general, DC50 refers to the midpoint of the concentration-degradation curve. Low readings indicate degradation at low concentration, high ones degradation only at high concentration. What is called Dmax is the largest share of the target that was removed. Low readings indicate shallow degradation, high ones deep degradation.
